Assay results published in patent publication US10662229B2, “Spider venom peptides and methods of use for modulating sodium channels” (priority 2016, dated 2020).

Columns and labels:
[1] = test system: burns-induced pain in mice; experiment: Burns-induced pain; assay type: in vivo; settings: intraplantar, 3 days after burns injury
Protocol: (§1) For behavioural assessment adult male C57BL/6J mice aged 6-8 weeks were used. Animals were housed in groups of 3 or 4 per cage, under 12 h light-dark cycles and had standard rodent chow and water ad libitum.
To induce a mild burn injury, the plantar skin of the left hind paw of mice was applied with firm pressure to a Peltier plate (Hot/Cold Plate, Ugo Basile, Comerio, Italy) set at 52.5° C. for 25 s under light isoflurane (3%) anaesthesia. Behavioural assessment (mechanical and thermal thresholds) was performed 3 days after the burns injury.
Mechanical allodynia was assessed using an electronic von Frey apparatus (MouseMet Electronic von Frey, TopCat Metrology Ltd, United Kingdom). […] The force that elicited paw withdrawal was calculated using the MouseMet Software. The paw withdrawal force (PWF) was determined from the average of three tests, separated by at least 2 min.
Mice were habituated in individual mouse runs for at least 5 min prior to testing. […] Removal of the paw and/or the probe by the investigator terminates heating, and triggers display of the withdrawal temperature on the readout, without the need for the investigator to manually stop the heating or record the temperature, until the reset button is pressed. The temperature that elicited a paw withdrawal, known as the paw withdrawal temperature (PWT), was determined by a single test.

hERG = biological target: T1, hERG (Homo sapiens, UniProt Q12809); experiment: hERG automated patch clamping in CHO cells; assay type: cell-based; settings: 100 nM
T1 construct: host or cells: CHO
T1 sequence (Q12809 whole entry): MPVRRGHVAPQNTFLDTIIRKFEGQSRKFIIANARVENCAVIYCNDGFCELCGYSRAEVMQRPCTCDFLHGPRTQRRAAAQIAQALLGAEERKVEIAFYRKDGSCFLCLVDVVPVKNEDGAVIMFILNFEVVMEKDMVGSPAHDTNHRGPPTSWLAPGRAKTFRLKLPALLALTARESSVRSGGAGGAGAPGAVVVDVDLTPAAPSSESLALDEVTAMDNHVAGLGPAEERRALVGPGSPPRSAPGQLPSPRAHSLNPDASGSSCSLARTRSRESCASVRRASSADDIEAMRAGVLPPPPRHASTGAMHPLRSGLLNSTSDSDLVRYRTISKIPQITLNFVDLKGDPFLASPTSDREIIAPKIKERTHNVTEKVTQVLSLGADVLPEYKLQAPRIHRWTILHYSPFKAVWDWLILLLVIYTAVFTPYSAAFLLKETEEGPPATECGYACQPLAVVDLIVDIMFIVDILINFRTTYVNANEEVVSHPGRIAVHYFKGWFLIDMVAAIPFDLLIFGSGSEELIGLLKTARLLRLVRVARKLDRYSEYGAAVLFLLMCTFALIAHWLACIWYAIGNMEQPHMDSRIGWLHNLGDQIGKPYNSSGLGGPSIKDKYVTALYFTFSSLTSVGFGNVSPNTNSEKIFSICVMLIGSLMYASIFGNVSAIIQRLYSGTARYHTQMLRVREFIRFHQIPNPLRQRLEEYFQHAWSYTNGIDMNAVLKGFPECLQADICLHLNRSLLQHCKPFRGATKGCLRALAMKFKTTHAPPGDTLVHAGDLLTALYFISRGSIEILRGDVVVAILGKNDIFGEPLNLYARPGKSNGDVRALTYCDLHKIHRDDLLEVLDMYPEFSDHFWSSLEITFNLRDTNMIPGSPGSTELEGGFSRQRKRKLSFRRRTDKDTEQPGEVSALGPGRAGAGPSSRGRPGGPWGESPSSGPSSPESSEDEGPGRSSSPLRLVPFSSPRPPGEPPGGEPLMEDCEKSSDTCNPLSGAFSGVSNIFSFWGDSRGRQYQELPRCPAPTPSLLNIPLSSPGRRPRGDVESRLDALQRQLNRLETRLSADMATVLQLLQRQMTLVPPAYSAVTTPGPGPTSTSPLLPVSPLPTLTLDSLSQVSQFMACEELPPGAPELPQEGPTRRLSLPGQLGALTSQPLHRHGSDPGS
Protocol: CHO cells stably expressing hERG (B'SYS GmbH, Witterswil, Switzerland) were cultured in Ham's F-12 medium containing 10% v/v FBS and selection antibiotics as recommended by the manufacturer. Cells were cultured and prepared as described in Example 4.
The extracellular solution contained in mM: NaCl 145, KCl 4, MgCl2 1, CaCl2 2, HEPES 10 and glucose 10. The pH was adjusted to 7.4 and osmolarity was 305 mOsm. The intracellular solution contained in mM; KCl 120, HEPES 10, CaCl2 5, MgCl2 1.7, K2ATP 4, EGTA 10.
The pH was adjusted to 7.3 and osmolarity was 292 mOsm.
Whole-cell patch-clamp experiments were performed on a QPatch-16 automated electrophysiology platform (as described in Example 4). hERG currents were elicited by a depolarization step of +40 mV from a holding potential of −80 mV for 5 s. hERG tail currents were elicited upon partial repolarization to −50 mV for 5 s. The interval of voltages pulses was 15 s.

hNav1.5 = biological target: T2, hNav1.5 (Homo sapiens, UniProt Q14524); experiment: Automated patch clamping (QPatch-16), hNav1.5; assay type: cell-based
T2 construct: host or cells: HEK293
Protocol: (§2) HEK293 cells stably expressing hNav1.1-1.7 or CHO cells stably expressing hNav1.8 (as described in Example 3 above) were cultured in a T-175 flask in selection antibiotic-free media at 37° C. Cells were grown to 70-80% confluence and harvested using Detachin (Bio-Scientific, NSW, Australia) at 37° C. for 2 min. Dissociated cells were then resuspended in Ex-Cell ACF CHO Medium with HEPES (25 mM; Sigma-Aldrich Co.) and allowed to recover on the QStirrer for 30 min.
(§3) The extracellular solution contained in mM: NaCl 145, KCl 4, CaCl2 2, MgCl2 1, HEPES 10 and glucose 10. The pH was adjusted to 7.4 with NaOH and osmolarity was adjusted with sucrose to 305 mOsm. The intracellular solution contained in mM: CsF 140, ethylene glycol tetraacetic acid (EGTA)/CsOH 1/5, HEPES 10 and NaCl 10. The pH was adjusted to 7.3 with CsOH and osmolarity adjusted with sucrose to 320 mOsm. […]
(§4) The current-voltage (IV) curve was constructed with a holding potential of −80 mV followed by a pre-pulse of −100 mV for 50 ms and a series of 50 ms step pulses that ranged from −80 to 50 mV in 5 mV increments before returning to a holding potential of −80 mV. Voltage-dependence of activation was determined as normalized Nav conductance (GNa) using: GNa=INa/(Vmemb−Vrev), where Vmemb is the membrane potential and Vrev is the reversal potential for each cell. […]

[2] = test system: post-operative pain in mice; experiment: Post-operative pain (plantar incision); assay type: in vivo; settings: 24 h after incision
Protocol: as §1
Mechanical allodynia was assessed using an electronic von Frey apparatus (MouseMet Electronic von Frey, TopCat Metrology Ltd, United Kingdom). Mice were habituated in individual mouse runs for at least 5 min prior to testing. A soft-tipped 0.3 mm diameter flat-ended polypropylene probe was applied to the plantar surface of each hind paw with pressured applied at a force rise rate of ˜1 g/s. The force that elicited paw withdrawal was calculated using the MouseMet Software. The paw withdrawal force (PWF) was determined from the average of three tests, separated by at least 2 min.
To induce post-operative (post-surgical) pain, the plantar skin of the hind paw of mice was incised under light isoflurane (3%) anaesthesia. Briefly, a 7 mm longitudinal incision was made through the skin and fascia 3 mm from the proximal edge of the heel using a sterile surgical scalpel (#11). The underlying plantaris muscle was elevated and also incised longitudinally. The wound was closed with two silk sutures. Mechanical allodynia was assessed 24 h after the incisional injury.

hNav1.4 = biological target: T3, hNav1.4 (Homo sapiens, UniProt P35499); experiment: Automated patch clamping (QPatch-16), hNav1.4; assay type: cell-based
T3 construct: host or cells: HEK293
T3 sequence (P35499 whole entry): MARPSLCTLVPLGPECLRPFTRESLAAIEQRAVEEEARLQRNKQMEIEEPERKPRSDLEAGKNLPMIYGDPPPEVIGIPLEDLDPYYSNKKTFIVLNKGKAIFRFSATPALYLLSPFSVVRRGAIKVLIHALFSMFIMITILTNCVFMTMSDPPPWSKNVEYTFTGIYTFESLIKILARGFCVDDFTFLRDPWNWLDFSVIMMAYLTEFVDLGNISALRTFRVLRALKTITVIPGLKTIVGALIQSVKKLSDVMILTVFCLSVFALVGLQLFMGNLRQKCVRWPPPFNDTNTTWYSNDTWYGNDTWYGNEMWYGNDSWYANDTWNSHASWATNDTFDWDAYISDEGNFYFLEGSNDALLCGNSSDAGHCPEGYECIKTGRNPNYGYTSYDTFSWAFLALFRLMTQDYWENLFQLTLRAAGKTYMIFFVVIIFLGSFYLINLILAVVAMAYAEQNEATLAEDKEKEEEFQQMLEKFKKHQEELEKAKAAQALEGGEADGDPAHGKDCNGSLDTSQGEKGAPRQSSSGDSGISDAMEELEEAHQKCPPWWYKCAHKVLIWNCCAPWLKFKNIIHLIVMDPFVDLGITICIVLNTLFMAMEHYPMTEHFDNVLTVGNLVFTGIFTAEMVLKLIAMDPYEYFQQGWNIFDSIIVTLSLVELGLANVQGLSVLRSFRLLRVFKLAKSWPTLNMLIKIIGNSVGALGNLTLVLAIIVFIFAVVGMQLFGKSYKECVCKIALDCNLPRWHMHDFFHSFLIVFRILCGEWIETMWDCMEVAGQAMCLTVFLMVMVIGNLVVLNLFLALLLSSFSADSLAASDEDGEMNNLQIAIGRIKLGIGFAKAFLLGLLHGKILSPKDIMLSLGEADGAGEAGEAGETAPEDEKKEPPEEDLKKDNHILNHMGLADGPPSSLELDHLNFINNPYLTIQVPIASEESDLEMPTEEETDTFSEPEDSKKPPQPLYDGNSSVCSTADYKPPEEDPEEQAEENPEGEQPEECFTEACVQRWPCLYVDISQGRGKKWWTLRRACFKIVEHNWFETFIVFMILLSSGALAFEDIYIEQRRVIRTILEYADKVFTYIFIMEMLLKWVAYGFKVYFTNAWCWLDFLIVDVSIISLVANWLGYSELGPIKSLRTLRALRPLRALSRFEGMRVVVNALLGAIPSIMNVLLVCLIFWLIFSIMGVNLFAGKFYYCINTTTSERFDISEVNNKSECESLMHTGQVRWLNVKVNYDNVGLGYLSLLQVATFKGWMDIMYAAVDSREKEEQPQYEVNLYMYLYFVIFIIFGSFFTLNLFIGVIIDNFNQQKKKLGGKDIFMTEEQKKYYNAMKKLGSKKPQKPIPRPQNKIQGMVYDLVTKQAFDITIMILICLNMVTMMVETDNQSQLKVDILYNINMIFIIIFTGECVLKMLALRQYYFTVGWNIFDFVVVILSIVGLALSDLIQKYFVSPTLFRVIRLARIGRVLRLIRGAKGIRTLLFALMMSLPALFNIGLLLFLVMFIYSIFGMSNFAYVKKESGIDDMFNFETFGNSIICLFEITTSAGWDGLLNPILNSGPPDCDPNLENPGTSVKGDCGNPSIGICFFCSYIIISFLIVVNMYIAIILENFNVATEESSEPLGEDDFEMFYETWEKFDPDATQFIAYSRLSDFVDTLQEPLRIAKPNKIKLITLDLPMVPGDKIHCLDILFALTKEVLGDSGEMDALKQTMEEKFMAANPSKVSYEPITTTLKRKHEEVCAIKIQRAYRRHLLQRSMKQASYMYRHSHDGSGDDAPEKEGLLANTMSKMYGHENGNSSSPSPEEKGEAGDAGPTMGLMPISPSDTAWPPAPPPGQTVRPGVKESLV
Protocol: as §2, §3, §4

hNav1.2 = biological target: T4, hNav1.2 (Homo sapiens, UniProt Q99250); experiment: Automated patch clamping (QPatch-16), hNav1.2; assay type: cell-based
T4 construct: host or cells: HEK293
Protocol: as §2, §3, §4

hNav1.9 = biological target: T5, hNav1.9 (Homo sapiens, UniProt Q9UI33); experiment: Automated patch clamp (PatchXpress), hNav1.9; assay type: cell-based
T5 construct: expressed in transfected cells; host or cells: HEK293
T5 sequence (Q9UI33 whole entry): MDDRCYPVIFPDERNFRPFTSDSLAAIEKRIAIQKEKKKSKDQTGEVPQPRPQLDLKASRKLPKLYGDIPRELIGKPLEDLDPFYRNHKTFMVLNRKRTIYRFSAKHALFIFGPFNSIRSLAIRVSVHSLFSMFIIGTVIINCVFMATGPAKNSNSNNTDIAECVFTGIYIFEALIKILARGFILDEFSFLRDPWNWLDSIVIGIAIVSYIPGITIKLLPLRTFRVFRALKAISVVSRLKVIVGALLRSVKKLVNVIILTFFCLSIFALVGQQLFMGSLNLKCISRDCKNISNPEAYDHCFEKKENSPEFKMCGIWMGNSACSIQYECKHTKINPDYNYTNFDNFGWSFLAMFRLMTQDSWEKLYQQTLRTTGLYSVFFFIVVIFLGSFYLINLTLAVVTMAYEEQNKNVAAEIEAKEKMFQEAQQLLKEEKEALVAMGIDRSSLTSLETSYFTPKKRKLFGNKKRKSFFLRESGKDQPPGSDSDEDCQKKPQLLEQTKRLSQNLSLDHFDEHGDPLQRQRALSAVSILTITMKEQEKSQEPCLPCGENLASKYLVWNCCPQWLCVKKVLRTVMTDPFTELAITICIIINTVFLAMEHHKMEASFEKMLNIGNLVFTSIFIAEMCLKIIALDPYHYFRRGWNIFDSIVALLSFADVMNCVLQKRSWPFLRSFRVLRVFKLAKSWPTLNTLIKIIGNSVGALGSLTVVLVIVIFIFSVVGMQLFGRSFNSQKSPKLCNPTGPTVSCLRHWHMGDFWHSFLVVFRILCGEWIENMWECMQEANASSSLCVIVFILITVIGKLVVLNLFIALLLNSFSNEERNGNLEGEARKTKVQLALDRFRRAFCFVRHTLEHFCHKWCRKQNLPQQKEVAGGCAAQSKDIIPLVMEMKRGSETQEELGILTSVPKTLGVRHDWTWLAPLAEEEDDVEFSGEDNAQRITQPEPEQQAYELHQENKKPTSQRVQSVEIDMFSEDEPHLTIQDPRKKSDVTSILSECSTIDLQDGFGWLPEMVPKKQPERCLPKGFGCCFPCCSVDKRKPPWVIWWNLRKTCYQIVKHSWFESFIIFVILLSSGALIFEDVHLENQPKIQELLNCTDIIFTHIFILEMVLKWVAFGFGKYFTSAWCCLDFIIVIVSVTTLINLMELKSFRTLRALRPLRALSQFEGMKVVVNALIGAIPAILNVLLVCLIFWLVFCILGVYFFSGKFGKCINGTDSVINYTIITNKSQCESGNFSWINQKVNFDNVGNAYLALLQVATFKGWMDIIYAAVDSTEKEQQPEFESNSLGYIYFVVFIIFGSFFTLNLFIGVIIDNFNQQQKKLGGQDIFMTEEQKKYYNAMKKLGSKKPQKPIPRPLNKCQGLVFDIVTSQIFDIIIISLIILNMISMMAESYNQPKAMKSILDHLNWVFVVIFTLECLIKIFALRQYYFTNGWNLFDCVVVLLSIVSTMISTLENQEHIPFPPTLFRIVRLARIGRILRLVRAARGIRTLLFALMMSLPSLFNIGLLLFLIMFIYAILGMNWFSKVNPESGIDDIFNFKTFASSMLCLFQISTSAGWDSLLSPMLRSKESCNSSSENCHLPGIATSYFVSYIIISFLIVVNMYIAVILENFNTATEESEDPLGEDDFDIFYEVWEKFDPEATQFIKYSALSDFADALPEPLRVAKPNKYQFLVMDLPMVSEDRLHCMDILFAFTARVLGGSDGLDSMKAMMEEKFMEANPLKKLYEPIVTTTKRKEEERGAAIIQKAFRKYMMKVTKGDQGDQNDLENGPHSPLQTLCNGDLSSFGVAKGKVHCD
Protocol: Cells were triturated until a single cell suspension was achieved. […] Cell aliquots of 5 mL (1×10^6 cells) were placed in a 15 mL centrifuge tube and spun at 100×g for 2 minutes.

## CSCC[C@@H]1NC(=O)[C@H](Cc2ccc(O)cc2)NC(=O)[C@H](CCCNC(=N)N)NC(=O)[C@@H](NC(=O)[C@@H](N)CC(=O)O)CSSC[C@@H]2NC(=O)[C@@H]3CSSC[C@@H](C(=O)N[C@@H](C)C(=O)N[C@@H](Cc4c[nH]c5ccccc45)C(=O)N[C@@H](CC(=O)O)C(=O)N[C@@H](Cc4ccccc4)C(=O)N[C@H](C(=O)N[C@@H](Cc4ccccc4)C(=O)N[C@H](C(=O)O)[C@@H](C)O)[C@@H](C)O)NC(=O)[C@H](Cc4ccc(O)cc4)NC(=O)[C@H](CCCCN)NC(=O)[C@H](CCSC)NC(=O)[C@H](CCCCN)NC(=O)[C@H](CCCNC(=N)N)NC(=O)[C@H](CCCCN)NC(=O)[C@H](CSSC[C@H](NC(=O)[C@H](CC(=O)O)NC(=O)CNC(=O)[C@H](Cc4ccccc4)NC1=O)C(=O)N[C@@H](CCC(=O)O)C(=O)N[C@@H](CCCCN)C(=O)N[C@@H](CC(=O)O)C(=O)N[C@@H](CCC(=O)O)C(=O)N[C@@H](CC(=O)O)C(=O)N3)NC(=O)CNC(=O)[C@H](CC(C)C)NC(=O)[C@H](Cc1cnc[nH]1)NC(=O)[C@H](CCCCN)NC2=O [Pnc1a]
[1]
  mechanical threshold of the injured paw: no significant effect
  thermal threshold of the injured paw: significantly increased
hERG
  effect on hERG peak tail current: did not have a significant effect
hERG; control 539±13 pA
  hERG peak tail current: 504±38 pA
hNav1.5
  IC50: 977 nM
[2]; intraperitoneal 3 mg/kg
  mechanical threshold of the injured paw compared to vehicle: significantly increased
[2]; intraplantar 3 μM
  mechanical threshold of the injured paw compared to vehicle: significantly increased
hNav1.4
  IC50: 158 nM
hNav1.2
  IC50: 126 nM
hNav1.9
  IC50: 2340 nM
